Measured values published in patent US20150064109A1, “Quantified differentiation and identification of changes in tissue by enhancing differences in blood flow and metabolic activity” (priority 2013, published 2015).

Columns and labels:
breast tissue [1] = experiment: Study 1: sestamibi breast imaging, maximal count activity (MCA) with Miraluma, SDD and HDD (B.E.S.T.) in ten women; type: in vivo, human; details: for MCA counts, Cancer: breast cancer tissue; for MCA counts, Inflamatory States: inflammatory breast tissue; for tissue differentiation: outcome in words, referring to FIG. 3 and Table 1
Method: Two sestamibi imaging studies were conducted. […] The results were also compared with biopsy data. All 10 women in the study had either an abnormality on mammography or a detectable lump on physical examination.
Subjects undergoing breast imaging arrived in the fasting state 15-30 minutes prior to the study. […] The IV was placed in the contralateral arm if there is a specific question regarding a specific breast. Sestamibi was administered intravenously four minutes into the study followed by a 10-20 cc normal saline flush to assure delivery of the isotope into the venous system, with imaging of the breast beginning ten minutes into the study. A SPECT camera was positioned in a stationary (planar) position for each of the images.
Breast imaging began with the patient placed in a prone position on top of a 6-inch foam pad designed to enhance the comfort of the patient while improving breast imaging. Each side of the 6-inch pad had breast inserts held in place by hook and loop-type adhesive strips, which were removed allowing each breast to be positioned through the openings in a dependent manner without breast compression. Planar breast imaging began with the BrQL breast (lateral view of breast in question or the right breast if neither breast was specifically suspected of having an abnormality), then the BrCL breast (lateral view of the breast contralateral to BrQL). Patients were then placed on their back for the anterior (BrAS) image of both breasts. Any areas of special concern, PO BrQ1 (posterior oblique view of 1st breast noted to have abnormal activity on initial views) and PO BrQ2 (posterior oblique view of the other breast if its activity is abnormal) were then imaged.
All images were acquired while the patient was prone, except for the anterior (BrAS) image, which was obtained while the patient was supine.
Breast image acquisition and reconstruction was performed using a Siemens orbiter Single Photon Emission Computed Tomography (SPECT) camera with 75 photomultiplier tubes (PMTs) and a 128 by 128 matrix, available from Siemens Medical Solutions, Malvern, Pa. The images were acquired with the camera head in a stationary (planar) position. The camera, computer and software providing quantification of maximal count activity (MCA) were supplied by NC Systems of Boulder, Colo. A low-energy high-resolution (LEHR) collimator was used providing a resolution of 3.4 mm.
(§1) Subjects arrive in a fasting state 15-30 minutes prior to the study. An 18-20 gauge intravenous catheter was placed either in the right antebrachium, or in the left antebrachium. The IV was placed in the contralateral arm if a specific breast was the breast in question. […] The catheter was flushed with 10-20 cc of normal saline immediately after the HDD had been given to assure introduction of all of the HDD into the venous system. […] Anterior images were obtained with the patient in a supine position.
(§2) An example of the blue-green format is shown in FIG. 2a, juxtaposed with resting images.
Following the image reconstruction and presentation of each breast image, the region of greatest maximal activity (MCA) was determined and “quantified.” MCA is a measure of detected radiation (gamma) emission acquired by the SPECT camera during the imaging process and reflects the amount of isotope present at any given time within the tissue of interest. See Fleming R M, Dooley W C, Boyd L B, Kubovy C, “Breast Enhanced Scintigraphy Testing (B.E.S.T.)—Increased accuracy in detecting breast cancer accomplished by combining breast and cardiac imaging,” 48th Annual Scientific Session of the Society of Nuclear Medicine, Toronto, Ontario, Canada, 26 Jun. 2001, the disclosure of which is incorporated herein by this reference. […] All readings and determination of MCA were determined for each breast prior to any knowledge of clinical, mammographic or pathologic information, which could in any way bias the results.

breast tissue [2] = experiment: Study 2: B.E.S.T. (HDD-enhanced sestamibi) breast imaging, MCA compared with histopathology in 195 individuals; type: in vivo, human; details: mean ± SD; for MCA quantitative counts, Cancer: breast cancer (n=15); for MCA quantitative counts, Atypia (Pre-cancerous): cellular atypia (15 individuals); for MCA quantitative counts, Inflammatory States: inflammatory changes (n=77); for MCA quantitative counts, Normal: normal breast tissue (n=88)
From the text: Tissue samples were obtained either through ductoscopy, fine needle aspiration or open biopsy and were interpreted by pathologists without knowledge of the sestamibi image results. Results were interpreted as being normal, inflammatory (including trauma, injury, infection, fibrocystic disease, radiation exposure and subsequent injury), atypia (with increasing order of cellular change progressing from hyperplasia to metaplasia/atypia to ductal carcinoma in situ) and cancer.
In a second study, one hundred and ninety five (195) (4 men, 191 women) individuals were studied using the enhanced (HDD) imaging approach. The study included four men having detectable breast lumps and 191 women, including 58 seeking additional information regarding breast disease concerns, and 133 with breast lumps and/or abnormal mammograms. The results of this study were also compared with biopsy data.
as §1, §2
Following the image reconstruction and presentation of each breast image, the region of greatest maximal activity (MCA) was determined and “quantified.” MCA is a measure of detected radiation (gamma) emission acquired by the SPECT camera during the imaging process and reflects the amount of isotope present at any given time within the tissue of interest. See Fleming R M, Dooley W C, Boyd L B, Kubovy C, “Breast Enhanced Scintigraphy Testing (B.E.S.T.)—Increased accuracy in detecting breast cancer accomplished by combining breast and cardiac imaging,” 48th Annual Scientific Session of the Society of Nuclear Medicine, Toronto, Ontario, Canada, 26 Jun. 2001, the disclosure of which is incorporated herein by this reference. […] All readings and determination of MCA were determined for each breast prior to any knowledge of clinical, mammographic or pathologic information, which could in any way bias the results. These procedures were performed at a recognized Center of Excellence for Nuclear Procedures under the direct supervision of a physician Boarded in Nuclear Imaging.
The outcomes of histopathologic specimens were compared with the MCA derived from sestamibi imaging. Descriptive statistical analysis of the MCAs were determined including mean±standard deviations and confidence intervals (CI) for the mean. Group comparisons were made using two-tailed t-tests to determine statistical differences defined as p-values of ≦0.05. Graphic representation of the means is shown for comparison purposes as well as raw data comparison for the histopathologic categories.

mitochondria = details: energy dependent manner; cited from earlier work

| SMILES | MCA counts, Cancer (breast tissue [1]; mean ± SD, Study 1) [counts] | MCA counts, Cancer (breast tissue [1]; mean ± SD, Study 1, listed as B.E.S.T.©) [counts] | MCA counts, Inflamatory States (breast tissue [1]; mean ± SD, Study 1) [counts] | MCA counts, Normal (breast tissue [1]; normal breast tissue, mean ± SD, sestamibi 25-30 mCi iv, Study 1) [counts] | tissue differentiation (breast tissue [1]; listed as HDD) | MCA quantitative counts, Cancer (breast tissue [2]; listed as B.E.S.T. ©) [counts] | MCA quantitative counts, Cancer (breast tissue [2]; listed as B.E.S.T.©) [counts] | MCA quantitative counts, Atypia (Pre-cancerous) (breast tissue [2]; listed as B.E.S.T. ©) [counts] | MCA quantitative counts, Atypia (Pre-cancerous) (breast tissue [2]; listed as B.E.S.T.©) [counts] | MCA quantitative counts, Inflammatory States (breast tissue [2]; listed as B.E.S.T. ©) [counts] | MCA quantitative counts, Inflammatory States (breast tissue [2]; listed as B.E.S.T.©) [counts] | MCA quantitative counts, Normal (breast tissue [2]; listed as B.E.S.T. ©) [counts] | MCA quantitative counts, Normal (breast tissue [2]; listed as B.E.S.T.©) [counts] | tissue differentiation (breast tissue [1]) | sestamibi taken up by mitochondria (mitochondria) |
| --- | --- | --- | --- | --- | --- | --- | --- | --- | --- | --- | --- | --- | --- | --- | --- |
| OCCN(CCO)c1nc(N2CCCCC2)c2nc(N(CCO)CCO)nc(N3CCCCC3)c2n1 [HDD/B.E.S.T. ©, dipyridamole] | 442.0 ± 5.7 | 442.0±5.7 | 228.8 ± 24.0 | 125.5 ± 31.5 | statistically significant at differentiating tissue types | 445.3 ± 83.3 | 445.3±83.3 | 307.7 ± 29.3 | 307.7±29.3 | 218.0 ± 40.3 | 218.0±40.3 | 145 ± 29.1 | 145.0±29.1 |  |  |
| OCCN(CCO)c1nc(N2CCCCC2)c2nc(N(CCO)CCO)nc(N3CCCCC3)c2n1 [SDD, dipyridamole] | 285.8 ± 17.0 |  | 183.5 ± 19.0 |  |  |  |  |  |  |  |  |  |  | useless in tissue differentiation |  |
| [99Tc+].[C-]#[N+]CC(C)(C)OC.[C-]#[N+]CC(C)(C)OC.[C-]#[N+]CC(C)(C)OC.[C-]#[N+]CC(C)(C)OC.[C-]#[N+]CC(C)(C)OC.[C-]#[N+]CC(C)(C)OC [sestamibi, Technetium-99m hexakis 2-methoxyisobutylisonitrile] |  |  |  |  |  |  |  |  |  |  |  |  |  |  | over 90% |
